Results reported in US12161630B2, “Methods to control infection using new generation small molecule growth inhibitors” (priority 2017, dated 2024).
≈ marks a conversion by molar mass, not a printed value.

Tests used:
[1] = system: Salmonella Albany; test: MIC and MBC dose-response, serotype Albany; assay type: cell-based, Salmonella enterica; settings: MIC identical to MBC
Procedure: (§1) An overnight Salmonella suspension was normalized at 0.05 OD600 (approximately 3.5×10^7 CFU/ml) with an adjusted M9 minimal broth medium (12.7 mM Na2HPO4 7H2O; 22 mM KH2PO4; 18.7 mM NH4Cl; 2 mM MgSO4; 0.1 mM CaCl2; 0.4% glucose; 0.05% casamino acids). 100 μL of the suspension plus 2 μl of SMs (200 μM) were transferred into each well of a sterile, non-treated, flat bottom 96-well plate. Bacteria alone (negative control, NC), 2% DMSO plus bacteria (DMSO control), 20 μg/ml chloramphenicol or 50 μg/ml kanamycin plus bacteria (positive controls, PC), and M9 medium only were used as control. Plates were incubated in a Sunrise™ Tecan kinetic microplate reader for 12 hrs at 37° C. and the optical density (OD) was measure at 600 nm as described above. Percentage of inhibition=(OD600 SM−OD600 NC)/(OD600 NC)×100. […] Cultures from wells showing no turbidimetric increase were transferred onto a XLT4 agar plate. Plates were incubated at 37° C. for 36 hrs.
(§2) Screens were performed as described in the primary screen. The lowest SM concentration with a static effect was considered as the minimal inhibitory concentration (MIC) and the lowest SM concentration with a cidal effect was considered as the minimal bactericidal concentration (MBC).

[2] = system: S. typhimurium WT; test: High-throughput primary screen for S. typhimurium growth inhibitors at 200 μM; assay type: cell-based, Salmonella enterica subsp. enterica serovar Typhimurium LT2; settings: adjusted M9 minimal broth, 12 hrs, 37° C., bactericidal = 100% growth inhibition and no growth on XLT4 agar, bacteriostatic = 100% growth inhibition but growth on XLT4 agar
Procedure: Identification of S. typhimurium growth inhibitors: The 4182 small molecules (SMs) were screened at 200 μM against S. typhimurium WT using HTS assay in a 96-well plate format. An overnight Salmonella suspension was normalized at 0.05 OD600 (approximately 3.5×10^7 CFU/ml) with an adjusted M9 minimal broth medium (12.7 mM Na2HPO4 7H2O; 22 mM KH2PO4; 18.7 mM NH4Cl; 2 mM MgSO4; 0.1 mM CaCl2; 0.4% glucose; 0.05% casamino acids). 100 μL of the suspension plus 2 μl of SMs (200 μM) were transferred into each well of a sterile, non-treated, flat bottom 96-well plate. Bacteria alone (negative control, NC), 2% DMSO plus bacteria (DMSO control), 20 μg/ml chloramphenicol or 50 μg/ml kanamycin plus bacteria (positive controls, PC), and M9 medium only were used as control. Plates were incubated in a Sunrise™ Tecan kinetic microplate reader for 12 hrs at 37° C. and the optical density (OD) was measure at 600 nm as described above. Percentage of inhibition=[…]. SMs were identified as growth inhibitors if their inhibition value after incubation was above 20% (value representing the inhibition level monitored with the DMSO controls). Cultures from wells showing no turbidimetric increase were transferred onto a XLT4 agar plate. Plates were incubated at 37° C. for 36 hrs.

[3] = system: S. typhimurium WT; test: MIC and MBC dose-response, serotype Typhimurium; assay type: cell-based, Salmonella enterica subsp. enterica serovar Typhimurium LT2; settings: Salmonella serotype Typhimurium; MIC identical to MBC
Procedure: as §1, §2

[4] = system: Salmonella Braenderup; test: MIC and MBC dose-response, serotype Braenderup; assay type: cell-based, Salmonella enterica; settings: MIC identical to MBC
[5] = system: Salmonella Saint-Paul; test: MIC and MBC dose-response, serotype Saint-Paul; assay type: cell-based; settings: MIC identical to MBC
Procedure: as §1, §2

[6] = system: Salmonella Javiana; test: MIC and MBC dose-response, serotype Javiana; assay type: cell-based, Salmonella enterica; settings: MIC identical to MBC
Procedure: as §1, §2

[7] = system: Salmonella Anatum; test: MIC and MBC dose-response, serotype Anatum; assay type: cell-based, Salmonella enterica; settings: MIC identical to MBC
Procedure: as §1, §2

[8] = system: S. typhimurium WT; test: Antimicrobial resistance studies (single step and sequential passage); assay type: cell-based, Salmonella enterica subsp. enterica serovar Typhimurium LT2
Procedure: Antimicrobial resistance studies: Single step and sequential passage resistance assays were performed as described (9). The MIC of the selected five SMs against S. typhimurium WT was used as reference for lethal (2×MIC) and sub-lethal (0.75×MIC) doses.
The medium was allowed to solidify overnight in the dark at room temperature. The next day, 100 μl of S. typhimurium bacteria (approximately 10^9 CFU) was transferred onto the adjusted M9 agar containing 2×MIC of SMs. S. typhimurium WT growth in 2% DMSO, 20 μg/ml chloramphenicol, or 50 μg/ml kanamycin, and adjusted M9 medium only were used as controls. The plate was sealed with parafilm and incubated for 15 days in the dark at 37° C. After 15 days, 100 μl of LB broth was added to the wells of 24-well plate showing no colonies in order to resuspend the potential surviving bacteria and transferred into a 5 ml tube.
The plate was incubated in the dark at 37° C., 175 rpm for 12 hrs. After this first passage, the plate was centrifuged for seven min at 4500 rpm. Supernatant was replaced with a fresh adjusted M9 broth media amended with 0.75×MIC of the corresponding SM. This procedure was repeated fourteen times. Following the 15th passage, a dose-response assay was performed on the remaining alive S. typhimurium bacteria as describe previously.

[9] = system: Salmonella Newport; test: MIC and MBC dose-response, serotype Newport; assay type: cell-based, Salmonella enterica; settings: MIC identical to MBC
Procedure: as §1, §2

[10] = system: Salmonella Heidelberg; test: MIC and MBC dose-response, serotype Heidelberg; assay type: cell-based, Salmonella enterica; settings: MIC identical to MBC
Procedure: as §1, §2

[11] = system: Salmonella Enteritidis; test: MIC and MBC dose-response, serotype Enteritidis; assay type: cell-based, Salmonella enterica; settings: MIC identical to MBC
Procedure: as §1, §2

[12] = system: Kan^R S. typhimurium; test: Preventive efficacy in S. typhimurium-infected G. mellonella larvae; assay type: in vivo, Galleria mellonella; settings: 72 HPI; pretreated with 12.5 μg per larva 2 hrs before infection
Procedure: FIGS. 4(A-B). Preventive antimicrobial efficacy of SM treatment in S. typhimurium-infected G. mellonella. Larva were first treated with 12.5 μg SMs per larva (50 mg/kg), incubated for 2 hrs at 37° C. in the dark, then infected with 10^4 CFU per larva, and further incubated at 37° C. in the dark for 72 hrs. FIG. 4A: G. mellonella larva survival rate. Survival rate was monitored every 12 hours for 72 hrs. Infected larva treated with chloramphenicol control (CK) had 100% survival. FIG. 4B: Bacterial quantification of Salmonella inside larvae following death of larva or, if alive, after 72 hours of incubation. Light black dot: larva still alive after 72 hrs post-inoculation (HPI); Black dot: larvae dead before 72 HPI.
Effect of the selected four SMs on S. typhimurium intracellular survival in G. mellonella larvae: Wax moths were selected as mentioned previously in the toxicity assay section. First, the virulence of both Kan^R and WT S. typhimurium strains in G. mellonella was assessed. Briefly, a S. typhimurium suspension normalized at approximately 10^6 CFU/ml in 10 mM MgSO4 was used as the inoculum. […] Survival rate was monitored every 12 hrs. The bacterial quantification was performed once the larvae were considered dead (dark pigmentation or no reaction to a mechanical stimulus) or after the 72 hrs of incubation. […]

CN(CCO)CC(O)Cn1c2ccc(Br)cc2c2cc(Br)ccc21 (centres unmarked) [SM2, 1-(3,6-dibromo-9H-carbazol-9-yl)-3-[(2-hydroxyethyl)(methyl)amino]-2-propanol]
MIC/MBC [1]: 200 µM (≈ 91.2 µg/mL)
Effect on S. Typhimurium at 200 μM [2]: Bactericidal
MIC/MBC [3]: 100 µM (≈ 45.6 µg/mL)
MIC/MBC [4]: 200 µM (≈ 91.2 µg/mL)
MIC/MBC [5]: 200 µM (≈ 91.2 µg/mL)
MIC/MBC [6]: 200 µM (≈ 91.2 µg/mL)
MIC/MBC [7]: 200 µM (≈ 91.2 µg/mL)
resistance after repeated exposure at sub-lethal dose ([8]; 0.75×MIC in liquid medium, 15 passages at 37° C.): developed resistance mechanisms
resistance after single exposure at a lethal dose ([8]; 2×MIC in solid medium): developed resistance mechanisms
SM concentration at which resistant bacteria were able to grow ([8]; minimal growth condition, represents 4×MBC): 400 µM
MIC/MBC [9]: 200 µM (≈ 91.2 µg/mL)
MIC/MBC [10]: 200 µM (≈ 91.2 µg/mL)
MIC/MBC [11]: 200 µM (≈ 91.2 µg/mL)

O=C(N[C@H](CO)[C@H](O)c1ccc([N+](=O)[O-])cc1)C(Cl)Cl [chloramphenicol]
survival of infected larvae [12]: 100%
